What was measured:
GRK7 = GRK7 (Homo sapiens, UniProt Q8WTQ7); settings: 1 µM, ATP at Km
DMPK = DMPK (Homo sapiens, UniProt Q09013); settings: 1 µM, ATP at Km
CDK1/CYCLINB = CDK1/CYCLINB (Homo sapiens, UniProt P06493); settings: 1 µM, ATP at Km
NLK = NLK (Homo sapiens, UniProt Q9UBE8); settings: 1 µM, ATP at Km
PYK2 = PYK2 (Homo sapiens, UniProt Q14289); settings: 1 µM, ATP at Km
FGFR4 = FGFR4 (Homo sapiens, UniProt P22455); settings: 1 µM, ATP at Km
GSK3ALPHA = GSK3ALPHA (Homo sapiens, UniProt P49840); settings: 1 µM, ATP at Km
PTK5 = PTK5 (Homo sapiens, UniProt P42685); settings: 1 µM, ATP at Km
ROS = ROS (Homo sapiens, UniProt P08922); settings: 1 µM, ATP at Km
CDK2/CYCLINE = CDK2/CYCLINE (Homo sapiens, UniProt P24941); settings: 1 µM, ATP at Km
PAK5 = PAK5 (Homo sapiens, UniProt Q9P286); settings: 1 µM, ATP at Km
phospho-STAT1^SER727 = assay: cells; settings: Homo sapiens, SW-620, read-out: pSTAT1^SER727 IC50 ± SD
IKKALPHA = IKKALPHA (Homo sapiens, UniProt O15111); settings: 1 µM, ATP at Km
MTOR = MTOR (Homo sapiens, UniProt P42345); settings: 1 µM, ATP at Km
TRKB = TRKB (Homo sapiens, UniProt Q16620); settings: 1 µM, ATP at Km
PRK2 = PRK2 (Homo sapiens, UniProt Q16513); settings: 1 µM, ATP at Km
Chain of PRK2 (Q16513 whole entry): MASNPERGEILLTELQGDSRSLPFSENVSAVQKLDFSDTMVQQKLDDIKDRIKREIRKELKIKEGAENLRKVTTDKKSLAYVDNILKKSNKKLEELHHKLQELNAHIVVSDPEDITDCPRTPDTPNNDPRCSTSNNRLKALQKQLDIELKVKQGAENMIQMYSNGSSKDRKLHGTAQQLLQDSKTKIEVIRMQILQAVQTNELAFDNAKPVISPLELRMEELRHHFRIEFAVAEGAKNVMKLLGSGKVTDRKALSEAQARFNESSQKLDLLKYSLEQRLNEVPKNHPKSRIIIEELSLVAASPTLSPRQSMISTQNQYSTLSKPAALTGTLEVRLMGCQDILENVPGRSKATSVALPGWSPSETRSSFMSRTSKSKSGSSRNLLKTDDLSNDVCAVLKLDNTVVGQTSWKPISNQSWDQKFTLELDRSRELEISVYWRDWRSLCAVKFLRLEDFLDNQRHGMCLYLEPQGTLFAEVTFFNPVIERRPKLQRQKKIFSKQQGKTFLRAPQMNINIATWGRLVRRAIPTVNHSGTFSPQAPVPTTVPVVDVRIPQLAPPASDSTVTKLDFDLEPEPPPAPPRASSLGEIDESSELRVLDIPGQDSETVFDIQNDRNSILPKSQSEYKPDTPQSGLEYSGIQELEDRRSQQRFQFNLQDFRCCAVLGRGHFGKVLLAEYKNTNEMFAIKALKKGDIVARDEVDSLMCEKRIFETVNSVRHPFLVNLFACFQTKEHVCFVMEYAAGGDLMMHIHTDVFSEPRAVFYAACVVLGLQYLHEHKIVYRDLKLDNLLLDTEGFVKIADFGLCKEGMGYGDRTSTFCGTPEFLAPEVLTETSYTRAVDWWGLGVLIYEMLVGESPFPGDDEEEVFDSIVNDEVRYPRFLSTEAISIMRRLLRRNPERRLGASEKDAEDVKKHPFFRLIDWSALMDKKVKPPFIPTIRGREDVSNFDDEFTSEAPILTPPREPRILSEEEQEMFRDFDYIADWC

ABL = ABL (Homo sapiens, UniProt P00519); settings: 1 µM, ATP at Km
TSSK1 = TSSK1 (Homo sapiens, UniProt Q9BXA7); settings: 1 µM, ATP at Km
Chain of TSSK1 (Q9BXA7 whole entry): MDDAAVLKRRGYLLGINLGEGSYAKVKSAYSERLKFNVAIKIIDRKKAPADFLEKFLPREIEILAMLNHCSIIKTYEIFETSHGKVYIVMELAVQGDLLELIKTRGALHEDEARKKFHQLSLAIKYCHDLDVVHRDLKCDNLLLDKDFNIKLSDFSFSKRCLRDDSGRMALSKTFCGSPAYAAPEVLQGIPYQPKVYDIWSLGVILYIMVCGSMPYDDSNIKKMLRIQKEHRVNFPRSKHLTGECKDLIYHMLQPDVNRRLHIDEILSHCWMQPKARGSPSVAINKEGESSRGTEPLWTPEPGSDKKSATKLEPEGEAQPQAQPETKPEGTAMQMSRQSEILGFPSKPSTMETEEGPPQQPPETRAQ

DDR2 = DDR2 (Homo sapiens, UniProt Q16832); settings: 1 µM, ATP at Km
PIP4K2A = PIP4K2A (Homo sapiens, UniProt P48426); settings: 1 µM, ATP at Km
CAMKIIBETA = CAMKIIBETA (Homo sapiens, UniProt Q13554); settings: 1 µM, ATP at Km
RSK1 = RSK1 (Homo sapiens, UniProt Q15418); settings: 1 µM, ATP at Km
PAR-1BALPHA = PAR-1BALPHA (Homo sapiens, UniProt Q7KZI7); settings: 1 µM, ATP at Km
Chain of PAR-1BALPHA (Q7KZI7 whole entry): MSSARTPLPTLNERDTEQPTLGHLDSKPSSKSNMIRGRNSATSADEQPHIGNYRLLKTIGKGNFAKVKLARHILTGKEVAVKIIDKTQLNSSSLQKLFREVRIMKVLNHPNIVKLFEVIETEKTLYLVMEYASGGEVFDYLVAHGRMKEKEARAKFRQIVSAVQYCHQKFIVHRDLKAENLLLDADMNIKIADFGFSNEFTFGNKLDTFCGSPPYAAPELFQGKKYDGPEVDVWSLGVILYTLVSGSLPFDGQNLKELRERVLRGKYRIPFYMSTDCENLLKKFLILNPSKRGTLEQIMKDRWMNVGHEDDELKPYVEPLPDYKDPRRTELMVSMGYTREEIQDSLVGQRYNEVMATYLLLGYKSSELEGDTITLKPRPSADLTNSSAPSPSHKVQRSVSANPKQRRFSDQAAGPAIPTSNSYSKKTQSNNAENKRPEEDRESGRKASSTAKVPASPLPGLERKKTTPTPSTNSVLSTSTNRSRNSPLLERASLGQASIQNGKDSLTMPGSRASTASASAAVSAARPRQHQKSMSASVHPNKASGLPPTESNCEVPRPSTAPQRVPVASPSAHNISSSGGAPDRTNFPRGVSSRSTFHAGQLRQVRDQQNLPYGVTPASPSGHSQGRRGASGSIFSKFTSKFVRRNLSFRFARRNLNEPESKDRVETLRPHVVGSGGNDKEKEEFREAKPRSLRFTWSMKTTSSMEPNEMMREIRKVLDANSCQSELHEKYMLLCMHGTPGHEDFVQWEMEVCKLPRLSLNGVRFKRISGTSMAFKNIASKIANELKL

GRK5 = GRK5 (Homo sapiens, UniProt P34947); settings: 1 µM, ATP at Km
MET = MET (Homo sapiens, UniProt P08581); settings: 1 µM, ATP at Km
LKB1 = LKB1 (Homo sapiens, UniProt Q15831); settings: 1 µM, ATP at Km
PKCGAMMA = PKCGAMMA (Homo sapiens, UniProt P05129); settings: 1 µM, ATP at Km
FLT4 = FLT4 (Homo sapiens, UniProt P35916); assay: biochemical; settings: read-out: FLT4 inhibition
GRK6 = GRK6 (Homo sapiens, UniProt P43250); settings: 1 µM, ATP at Km
PAK4 = PAK4 (Homo sapiens, UniProt O96013); settings: 1 µM, ATP at Km
Chain of PAK4 (O96013 whole entry): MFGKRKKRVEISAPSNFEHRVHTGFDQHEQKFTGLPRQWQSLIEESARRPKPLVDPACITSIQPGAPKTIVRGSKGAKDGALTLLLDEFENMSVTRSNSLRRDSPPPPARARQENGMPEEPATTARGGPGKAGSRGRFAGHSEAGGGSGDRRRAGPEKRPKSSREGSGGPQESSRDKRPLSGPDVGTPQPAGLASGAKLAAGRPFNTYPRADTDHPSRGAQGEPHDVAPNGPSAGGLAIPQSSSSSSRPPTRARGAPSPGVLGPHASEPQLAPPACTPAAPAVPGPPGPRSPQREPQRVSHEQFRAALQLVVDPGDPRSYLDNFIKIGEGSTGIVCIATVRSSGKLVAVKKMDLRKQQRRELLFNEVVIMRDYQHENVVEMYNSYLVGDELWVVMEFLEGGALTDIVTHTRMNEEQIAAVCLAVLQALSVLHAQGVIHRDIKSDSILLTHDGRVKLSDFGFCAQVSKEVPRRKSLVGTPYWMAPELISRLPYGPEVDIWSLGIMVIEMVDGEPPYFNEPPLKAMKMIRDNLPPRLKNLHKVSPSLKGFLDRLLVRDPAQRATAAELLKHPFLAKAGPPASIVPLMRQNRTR

FYN = FYN (Homo sapiens, UniProt P06241); settings: 1 µM, ATP at Km
MAPK1 = MAPK1 (Homo sapiens, UniProt P27361); settings: 1 µM, ATP at Km
PIM-2 = PIM-2 (Homo sapiens, UniProt Q9P1W9); settings: 1 µM, ATP at Km
Chain of PIM-2 (Q9P1W9 whole entry): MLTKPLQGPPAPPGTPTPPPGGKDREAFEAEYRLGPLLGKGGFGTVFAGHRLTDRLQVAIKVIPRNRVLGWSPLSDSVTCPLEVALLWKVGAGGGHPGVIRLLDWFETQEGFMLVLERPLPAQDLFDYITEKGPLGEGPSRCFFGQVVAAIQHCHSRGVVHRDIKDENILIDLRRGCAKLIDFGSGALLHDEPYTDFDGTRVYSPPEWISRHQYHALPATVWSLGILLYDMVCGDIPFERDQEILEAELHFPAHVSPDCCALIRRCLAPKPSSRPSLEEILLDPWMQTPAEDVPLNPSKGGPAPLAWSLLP

MST2 = MST2 (Homo sapiens, UniProt Q13188); settings: 1 µM, ATP at Km
EEF-2K = EEF-2K (Homo sapiens, UniProt O00418); settings: 1 µM, ATP at Km
LYN = LYN (Homo sapiens, UniProt P07948); settings: 1 µM, ATP at Km
Chain of LYN (P07948 whole entry): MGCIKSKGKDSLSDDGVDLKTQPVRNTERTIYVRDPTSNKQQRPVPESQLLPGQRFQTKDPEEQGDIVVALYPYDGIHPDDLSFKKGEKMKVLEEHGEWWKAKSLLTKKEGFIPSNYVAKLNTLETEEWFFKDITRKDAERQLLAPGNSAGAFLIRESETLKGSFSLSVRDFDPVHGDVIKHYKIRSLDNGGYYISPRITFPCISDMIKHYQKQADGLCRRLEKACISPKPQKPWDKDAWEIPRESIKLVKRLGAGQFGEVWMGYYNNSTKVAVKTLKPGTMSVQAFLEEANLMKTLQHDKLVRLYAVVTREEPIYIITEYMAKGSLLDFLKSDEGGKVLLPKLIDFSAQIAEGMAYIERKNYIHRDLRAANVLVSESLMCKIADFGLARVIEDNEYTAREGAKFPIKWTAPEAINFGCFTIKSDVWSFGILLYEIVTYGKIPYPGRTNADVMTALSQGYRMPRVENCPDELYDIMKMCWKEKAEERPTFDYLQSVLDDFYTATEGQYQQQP

PKCIOTA = PKCIOTA (Homo sapiens, UniProt P41743); settings: 1 µM, ATP at Km
SRPK1 = SRPK1 (Homo sapiens, UniProt Q96SB4); settings: 1 µM, ATP at Km
CLK2 = CLK2 (Homo sapiens, UniProt P49760); settings: 1 µM, ATP at Km
SNK = SNK (Homo sapiens, UniProt Q9NYY3); settings: 1 µM, ATP at Km
MST1 = MST1 (Homo sapiens, UniProt Q13043); settings: 1 µM, ATP at Km
TGFBR1 = TGFBR1 (Homo sapiens, UniProt P36897); settings: 1 µM, ATP at Km
DAPK1 = DAPK1 (Homo sapiens, UniProt P53355); settings: 1 µM, ATP at Km
PI3K BETA = PI3K BETA (Homo sapiens, UniProt P42338); settings: 1 µM, ATP at Km

Chain of FGFR4 (P22455 22-802): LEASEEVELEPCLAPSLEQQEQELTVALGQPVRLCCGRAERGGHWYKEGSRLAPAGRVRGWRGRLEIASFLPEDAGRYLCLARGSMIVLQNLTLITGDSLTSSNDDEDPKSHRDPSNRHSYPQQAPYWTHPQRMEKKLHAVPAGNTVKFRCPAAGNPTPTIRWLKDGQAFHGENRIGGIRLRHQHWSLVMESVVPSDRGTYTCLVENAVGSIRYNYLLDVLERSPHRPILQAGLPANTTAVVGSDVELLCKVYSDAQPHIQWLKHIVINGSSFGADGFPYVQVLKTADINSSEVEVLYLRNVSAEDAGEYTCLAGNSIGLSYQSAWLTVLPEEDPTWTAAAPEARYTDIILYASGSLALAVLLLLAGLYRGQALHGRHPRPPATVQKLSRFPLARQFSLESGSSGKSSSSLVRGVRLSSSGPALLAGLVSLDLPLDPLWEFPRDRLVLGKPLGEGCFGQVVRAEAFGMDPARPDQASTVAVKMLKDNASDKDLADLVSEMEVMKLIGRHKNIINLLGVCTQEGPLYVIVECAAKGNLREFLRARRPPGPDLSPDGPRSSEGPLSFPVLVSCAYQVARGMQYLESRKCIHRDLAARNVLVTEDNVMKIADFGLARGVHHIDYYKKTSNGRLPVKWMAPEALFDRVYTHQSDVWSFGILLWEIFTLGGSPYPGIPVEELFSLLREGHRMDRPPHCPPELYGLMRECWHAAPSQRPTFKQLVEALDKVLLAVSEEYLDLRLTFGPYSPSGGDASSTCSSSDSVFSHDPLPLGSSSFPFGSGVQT

COC1CN(C(=O)c2ccc3c(N)ncc(-c4ccc(-c5cnn(C)c5)cc4)c3c2)C1 [Compound 59]
percentage effect (GRK7): 8% | percentage effect (DMPK): -11% | percentage effect (CDK1/CYCLINB): -5% | percentage effect (NLK): -5% | percentage effect (PYK2): -1% | percentage effect (FGFR4): 14% | percentage effect (GSK3ALPHA): -29% | percentage effect (PTK5): -4% | percentage effect (ROS): -4% | percentage effect (CDK2/CYCLINE): 1% | percentage effect (PAK5): -7% | IC50 (phospho-STAT1^SER727): 114 ± 20.6 nM | percentage effect (IKKALPHA): 28% | percentage effect (MTOR): -5% | percentage effect (TRKB): 0% | percentage effect (PRK2): -11% | percentage effect (ABL): -10% | percentage effect (TSSK1): -14% | percentage effect (DDR2): 24% | percentage effect (PIP4K2A): 1% | percentage effect (CAMKIIBETA): 5% | percentage effect (RSK1): -14% | percentage effect (PAR-1BALPHA): -4% | percentage effect (GRK5): 22% | percentage effect (MET): -19% | percentage effect (LKB1): -10% | percentage effect (PKCGAMMA): 9% | inhibition at 1 µM (FLT4): 62% | percentage effect (GRK6): 8% | percentage effect (PAK4): 10% | percentage effect (FYN): 8% | percentage effect (MAPK1): -20% | percentage effect (PIM-2): 14% | percentage effect (MST2): -14% | percentage effect (EEF-2K): 8% | percentage effect (LYN): 0% | percentage effect (PKCIOTA): 2% | percentage effect (SRPK1): -24% | percentage effect (CLK2): -3% | percentage effect (SNK): 3% | percentage effect (MST1): -10% | percentage effect (TGFBR1): -4% | percentage effect (DAPK1): -5% | percentage effect (PI3K BETA): -2%

COC1CN(C(=O)c2ccc3c(N)ncc(-c4ccc(-c5cnn(C)c5)cc4)c3n2)C1 [Compound 51]
percentage effect (GRK7): 3% | percentage effect (DMPK): 7% | percentage effect (CDK1/CYCLINB): 1% | percentage effect (NLK): -3% | percentage effect (PYK2): -4% | percentage effect (FGFR4): 3% | percentage effect (GSK3ALPHA): -17% | percentage effect (PTK5): -8% | percentage effect (ROS): 14% | percentage effect (CDK2/CYCLINE): -1% | percentage effect (PAK5): -23% | IC50 (phospho-STAT1^SER727): 17.9 ± 10.6 nM | percentage effect (IKKALPHA): -17% | percentage effect (MTOR): -12% | percentage effect (TRKB): -23% | percentage effect (PRK2): -3% | percentage effect (ABL): 20% | percentage effect (TSSK1): 5% | percentage effect (DDR2): 6% | percentage effect (PIP4K2A): -5% | percentage effect (CAMKIIBETA): -10% | percentage effect (RSK1): 13% | percentage effect (PAR-1BALPHA): -9% | percentage effect (GRK5): 6% | percentage effect (MET): 22% | percentage effect (LKB1): -5% | percentage effect (PKCGAMMA): -1% | inhibition at 1 µM (FLT4): 54% | percentage effect (GRK6): 4% | percentage effect (PAK4): 4% | percentage effect (FYN): 1% | percentage effect (MAPK1): -13% | percentage effect (PIM-2): 16% | percentage effect (MST2): -5% | percentage effect (EEF-2K): 2% | percentage effect (LYN): -1% | percentage effect (PKCIOTA): -16% | percentage effect (SRPK1): 3% | percentage effect (CLK2): -18% | percentage effect (SNK): 8% | percentage effect (MST1): 9% | percentage effect (TGFBR1): -5% | percentage effect (DAPK1): 0% | percentage effect (PI3K BETA): -3%

Reference: article PMC4904262 (ACS Medicinal Chemistry Letters, 2016)
